The values that follow come from US20190083420A1, “METHODS OF USING (2R, 6R)-HYDROXYN[…] (2S, 6S)-HYDROXYN[…] THE TREATMENT OF DEPRESSION, ANXIETY, ANHEDONIA, FATIGUE, SUICIDAL IDEATION, AND POST TRAUMATIC STRESS DISORDERS” (The Uinited States of America, as represented by the …, priority 2016, published 2019).

The nature of data set [1]: Tissue distribution of ketamine and metabolites (plasma and brain levels). How it is done: Mice were euthanized by a 30-sec exposure to 3% isoflurane and decapitated at 10, 30, 60, 240 or 480 minutes following drug administration. Trunk blood was collected in EDTA-containing tubes and centrifuged at 8000 rpm for 6 min (4° C.). Plasma was collected and stored at −80° C. until analysis. Whole brains were simultaneously collected, rinsed with phosphate-buffered saline, immediately frozen in dry ice and stored at −80° C. until analysis.
The concentrations of ketamine and its metabolites in plasma and brain tissue were determined by achiral liquid chromatography-tandem mass spectrometry. For plasma samples, the calibration standards for (R,S)-ketamine, (R,S)-norketamine, (2R,6R;2S,6S)-HNK and (R,S)-DHNK ranged from 10,000 ng/ml to 19 ng/ml. The quantification of (R,S)-ketamine, (R,S)-norketamine, (R,S)-DHNK, and the HNK stereoisomers was accomplished by calculating area ratios using D4-ketamine (10 μl of 10 μg/ml solution) as the internal standard. Whole brains were suspended in 990 μl of water:methanol (3:2, v/v), D4-ketamine (10 μl of 10 μg/ml) added and the resulting mixture homogenized on ice with a polytron homogenizer and centrifuged at 21,000×g for 30 min. The supernatant was collected and processed using 1 ml Oasis HLB solid phase extraction cartridges (Waters Corp., Waltham, Mass.). The cartridges were preconditioned with 1 ml of methanol, followed by 1 ml of water and then 1 ml ammonium acetate [10 mM, pH 9.5]. The supernatants were added to the cartridges, followed by 1 ml of water and the compounds were eluted with 1 ml of methanol. The eluent was transferred to an autosampler vial for analysis. QC standards for the analysis of (R,S)-ketamine, (R,S)-norketamine, (R,S)-DHNK and (2R,6R;2S,6S)-HNK ranged from 10,000 ng/ml to 19 ng/ml, and quantification was accomplished using D4-(R,S)-ketamine as the internal standard. QC standards were prepared daily by adding 10 μl of the appropriate standard solution and 10 μl of internal standard solution (100 ng/ml) to methanol.

In data set [2] the test system is male CD-1 mice. Kind of data set: Forced-swim test (FST). The class given is in vivo. Conditions: for antidepressant effect in the FST (immobility time): i.p. The source says:
(§1) Male CD-1 mice (8-10 weeks old, Charles River Laboratories, Mass., USA) were housed in groups of four-five per cage with a constant 12-hour light/dark cycle (lights on/off at 07:00/19:00). Food and water were available ad libitum. Mice acclimatized to the new environment for seven days prior to the start of the experiments. For the whole-cell NMDA current electrophysiological recordings, male Sprague-Dawley rats (housed three per cage; Charles River, Wilmington, Mass.) were used. EPSC recording were done from rats at postnatal day 24-25. All experimental procedures were approved by the University of Maryland, Baltimore Animal Care and Use Committee and were conducted in full accordance with the National Institutes of Health Guide for the Care and Use of Laboratory Animals.
Mice were tested in the FST 1 hour and/or 24 hours post-injection. During the FST, mice were subjected to a 6-min swim session in clear Plexiglass cylinders (30 cm height×20 cm diameter) filled with 15 cm of water (23±1° C.). The FST was performed in normal light conditions (800 Lux). Sessions were recorded using a digital video-camera. Immobility time, defined as passive floating with no additional activity other than that necessary to keep the animal's head above water, was scored for the last 4 min of the 6-min test by a trained observer blind to the treatment.
All drugs were dissolved in 0.9% saline, and administered intraperitoneally (i.p.) in a volume of 7.5 ml/kg of body mass. Corticosterone (4-pregnen-11β, 21-diol-3, 20-dione 21-hemisuccinate; Steraloids, Newport, R.I., USA) was dissolved in tap water. For the electrophysiology recordings, test drugs were diluted in artificial cerebrospinal fluid (AC SF).

Data set [3] concerns male CD-1 mice. Put plainly: Learned helplessness (LH). Format: in vivo. Conditions: single injection, test 24 hours after administration.
Text: as §1
The LH paradigm consisted of three different phases, i.e., inescapable shock training, LH screening, and the LH test. For the inescapable shock portion of the test (Day 1), the animals were placed in one side of two-chambered shuttle boxes (34 cm height×37 cm width×18 cm depth; Coulbourn Instruments, PA, USA), with the door between the chambers closed. Following a five-min adaptation period, 120 inescapable foot-shocks (0.45 mA, 15 sec duration, randomized average inter-shock interval of 45 sec) were delivered through the grid floor. During the screening session (Day 2), the mice were placed in one of the two chambers of the apparatus for 5 min. A shock (0.45 mA) was then delivered, and the door between the two chambers was raised simultaneously. Crossing over into the second chamber terminated the shock. […] A total of 30 screening trials of escapable shocks were presented to each mouse with an average of 30 sec delay between each trial. Mice that developed helplessness behavior (>5 escape failures during the last 10 screening shocks) were administered with the respective drug 24 hours following screening (Day 3). During the LH test phase (Day 4), the animals were placed in the shuttle boxes and, after a 5-min adaptation period, a 0.45 mA shock was delivered concomitantly with door opening for the first five trials, followed by a 2-sec delay for the next 40 trials. Crossing over to the second chamber terminated the shock. […] A total of 45 trials of escapable shock were presented to each mouse with 30 sec inter-trial intervals. The number of escape failures was recorded for each mouse.

Data set [4] has as its system mice. Kind of data set: Open field test (locomotor activity). Particulars: 1 hour after i.p. drug, Hydrochloride. Format: in vivo. How it is done: Mice were placed into individual open-field arenas (50 cm length×50 cm width×38 cm height; San Diego Instruments, San Diego, Calif., USA) for a 60-min habituation period. Mice were then injected with the respective drug and assessed for locomotor activity for another 60 min. Distance travelled was analyzed using TopScan v2.0 (CleverSys, Inc, Reston, Va., USA).

The test system of data set [5] is Male C57BL/6J mice. Put plainly: Chronic social defeat stress and social interaction/avoidance test. Conditions: single i.p. injection, re-test 24 hours following treatment. Format: in vivo. How it is done:
Male C57BL/6J mice underwent a 10-day chronic social defeat stress paradigm. Briefly, experimental mice were introduced to the home cage (43 cm length×11 cm width×20 cm height) of a resident aggressive retired CD-1 breeder, prescreened for aggressive behaviors, for 10 min. Following this physical attack phase, mice were transferred and housed in the opposite side of the resident's cage divided by a Plexiglas perforated divider, in order to maintain continuous sensory contact. This process was repeated for 10 days. Experimental mice were introduced to a novel aggressive CD-1 mouse each day. On day 11, test mice were screened for susceptibility in a social interaction/avoidance choice test. The social interaction apparatus consisted of a rectangular three-chambered box (mouse conditioned-place preference chamber; Stoelting Co., Wood Dale, Ill., USA), see FIG. 7b) comprised of two equal sized end-chambers and a smaller central chamber. The social interaction/avoidance choice test consisted of two 5-min phases. During the habituation phase, mice explored the empty apparatus. During the test phase, two small wire cages (Galaxy Cup, Spectrum Diversified Designs, Inc., Streetsboro, Ohio, USA), one containing a “stranger” CD-1 mouse and the other one empty, were placed in the far corners of each chamber. The time spent interacting (nose within close proximity of the cage) with the “stranger” mouse versus the empty cage was analysed using TopScan video tracking software (CleverSys, Reston, Va.). Locomotor activity (total distance moved over 5 min) and number of total crosses into and out of the central chamber were also measured. The social interaction ratio was calculated by dividing the time spent interacting with the “stranger” by the time spent with the empty cage. Mice having a social interaction ratio higher than 1.0 were considered resilient and mice with a social interaction ratio lower than 1.0 were considered susceptible. On day 13 resilient and susceptible mice received an i.p. injection of either saline, (R,S)-KET (20 mg/kg; chosen based upon dose previously effective in C57BL/6J mice^31), MK-801 (0.1 mg/kg) or (2R,6R)-HNK (20 mg/kg). Mice were re-tested for social interaction/avoidance on […] (24 hours following treatment).

Data set [6] has as its system mice. Kind of data set: Quantitative EEG, cortical oscillation power. Format: in vivo. Particulars: NBQX before (2R,6R)-HNK. How it is done: EEG experiments were performed according to Raver et al., (Neuropsychopharmacology, 38, 2338-2347 (2013)) with minor modifications. Mice were anesthetized with isoflurane and kept under anesthesia throughout the surgery. An F20-EET radio-telemetric transmitter (Data Sciences International, Minneapolis, Minn.) was implanted subcutaneously and its leads implanted over the dura above the frontal cortex (1.7 mm anterior to bregma) and the cerebellum (6.4 mm posterior to bregma). Animals recovered from surgery for 7 days before recordings.
Mice were singly housed and acclimated to the behavioral room for 24 hours prior to EEG recordings. EEGs were recorded using the Dataquest A.R.T. acquisition system (Data Sciences International) with frontal EEG recordings referenced to the cerebellum. Baseline EEG (10 min) recordings were followed by an i.p. injection of saline, ketamine (10 mg/kg) or (2R,6R)-HNK (10 mg/kg) and 40 min of post-injection recordings.
ECoGs were analyzed using custom-written MATLAB scripts (Version 2012a, Mathworks, Mass.) and the mtspecgramc routine in the Chronux Toolbox (http://chronux.org; Mitra and Bokil, 2008). Oscillation power in each bandwidth (δ=1-3 Hz; θ=4-7 Hz; α=8-12 Hz; β=13-29 Hz; γ=30-80 Hz) was computed in 10 min bins from spectrograms for each animal.

Data set [7] concerns mice. Kind of data set: Drug discrimination in ketamine-trained mice. Format: in vivo. Conditions: for ketamine-associated discriminative stimulus: mice trained to discriminate ketamine (10 mg/kg) from saline. How it is done: Mice were food restricted until they reached 85% of their initial body weight and were maintained at 85% throughout the duration of the experiment Animals were trained to lever press for food (20 mg sucrose pellets; TestDiet, St. Luis, Mo., USA) in standard two lever-operant conditioning chambers (Coulbourn Instruments, Whitehall, Pa., USA), under a fixed-ratio 5 of reinforcement (FR5) in daily 30-min sessions. When stable responding was succeeded over 3 consecutive sessions (average of 40 training sessions), mice were trained to discriminate ketamine (10 mg/kg) from saline (7.5 ml/kg) under a double alternation schedule (e.g., ketamine, ketamine, saline, saline). The subjects received either ketamine (10 mg/kg; i.p.) or saline (7.5 ml/kg) 15 minutes prior to the start of the 30-minute session. […] Drug discrimination test sessions were conducted when mice reached the following criteria: (1) first FR5 completed on the correct lever, and (2)≥85% correct lever responding over the entire session. During the test sessions mice were administered with saline (7.5 ml/kg), ketamine (10 mg/kg), phencyclidine (PCP; 3 mg/kg) or (2R,6R)-HNK (10 and 50 mg/kg). […] Recording of responses and pellet delivery were controlled and calculated by an automated computer system (Graphic State v3.1; Coulbourn Instruments, Whitehall, Pa., USA).

Where [8] appears, read: 24 hours post-injection (sustained).

“Also recorded” adds a separate entry of the source.

Turning to `NC1(c2ccccc2Cl)CCCCC1=O` (racemic) [norketamine, (R,S)-norketamine], in data set [1] (brain), the “brain levels following ketamine administration, female mice compared to males” value was “equivalent levels”.

Turning to `Cl.[2H]C1([2H])CCCC(NC)(c2ccccc2Cl)C1=O` (centres unmarked) [6,6-dideuteroketamine, 2-(2-Chlorophenyl)-6,6-Dideutero-2-(Methylamino)Cyclohexanone Hydrochloride], the “antidepressant effect in the FST (immobility time)” value (“antidepressant effect in the FST” below) in data set [2] (setting [8]) is “did not induce antidepressant actions”. The “antidepressant-like effect in learned helplessness (escape failures)” value in data set [3] is “did not induce antidepressant actions”. In addition, the “locomotor activity in the open-field test” value in data set [4] is reported as “did not change or NMDA-mediated hyperlocomotion”; in data set [4] (listed as (R,S)-6,6-dideuteroketamine), “equally potent in inducing a hyper-locomotor response”. Besides, in data set [1] (6,6-dideuteroketamine compared to ketamine), the “levels of ketamine in the brain” value was “without changes to the levels of ketamine in the brain”.

For the compound `C[C@]12N[C@H](Cc3ccccc31)c1ccccc12` [MK-801], the “antidepressant effect in the FST” value in data set [2] (1 hour post-injection (acute)) is “antidepressant responses of both ketamine and MK-801 observed acutely”; in data set [2] (setting [8]) it was “does not exert sustained (24-hour) antidepressant-like effects”. The “reversal of social interaction deficits / social avoidance induced by chronic social defeat stress” value in data set [5] is listed as “does not exert sustained (24-hour) antidepressant-like effects in the FST, or reverse social interaction deficits”.

In the case of `NS(=O)(=O)c1cccc2c1c([N+](=O)[O-])cc1[nH]c(=O)c(=O)[nH]c12` [NBQX, 2,3-dihydroxy-6-nitro-7-sulfamoyl-benzo[f]quinoxaline-2,3-dione], in data set [2] (NBQX 10 minutes prior to (R,S)-ketamine or (2R,6R)-HNK, FST 1 hour or 24 hours later), the “effect of NBQX pre-treatment on antidepressant-like actions in the FST” value is “prevented their antidepressant-like actions; also recorded: prevented both the 1- and 24-hour antidepressant effects of (2R,6R)-HNK”. Besides, the “effect of NBQX given before the 24-hour FST on antidepressant effects” value in data set [2] (NBQX 30 min prior to the 24-hour FST (23.5 hours after ketamine or (2R,6R)-HNK)) was “prevented the antidepressant actions of both ketamine and (2R,6R)-HNK; also recorded: prevented the antidepressant effects of both (R,S)-KET and (2R,6R)-HNK”. In data set [6], the “effect of NBQX pre-treatment on (2R,6R)-HNK-induced increases in gamma oscillations” value was “prevented (2R,6R)-HNK-induced increases in gamma power; also recorded: prevented (2R,6R)-HNK-induced increases of gamma oscillations”; the “effect of NBQX pre-treatment on locomotor activity and alpha, beta, delta, theta oscillations” value is on record as “did not change”.

On to `CNCCCN1c2ccccc2CCc2ccccc21` [desipramine], for which, in data set [2] (1- and 24-hours post-injection, times not separated), the “antidepressant effect in the FST” value was “only decreased immobility time 1 hour post-injection”.

As for `c1ccc(C2(N3CCCCC3)CCCCC2)cc1` [phencyclidine, reference compound], the “response rate of overall lever pressing per sec” value in data set [7] (drug discrimination paradigm) was “not changed”. Further, the ketamine-associated discriminative stimulus entry in data set [7] is “did”; in data set [7] (listed as PCP), “produced ketamine-like discriminative properties”.
